Test results: patent US8748415B2 (priority 2011, dated 2014)

These compounds were tested on recombinant NL4-3 virus (Renilla luciferase in nef, Gag P373S) (assay: HIV cell culture assay (luciferase activity in MT-2 cells infected with NLRluc recombinant virus)). Conditions: NL43, MT-2 cells infected 4-5 days with NLRluc recombinant virus, class symbol.
Format: cell-based
Method: HIV cell culture assay—MT-2 cells and 293T cells were obtained from the NIH AIDS Research and Reference Reagent Program. MT-2 cells were propagated in RPMI 1640 media supplemented with 10% heat inactivated fetal bovine serum, […]. The 293T cells were propagated in DMEM media supplemented with 10% heat inactivated fetal bovine serum (FBS), 100 units/ml penicillin G and 100 μg/ml streptomycin. The proviral DNA clone of NL4-3 was obtained from the NIH AIDS Research and Reference Reagent Program. A recombinant NL4-3 virus, in which a section of the nef gene from NL4-3 was replaced with the Renilla luciferase gene, was used as a reference virus. In addition, residue Gag P373 was converted to P373S. Briefly, the recombinant virus was prepared by transfection of the altered proviral clone of NL4-3. Transfections were performed in 293T cells using LipofectAMINE PLUS from Invitrogen (Carlsbad, Calif.), according to manufacturer's instruction. The virus was titered in MT-2 cells using luciferase enzyme activity as a marker. Luciferase was quantitated using the Dual Luciferase kit from Promega (Madison, Wis.), with modifications to the manufacturer's protocol. The diluted Passive Lysis solution was pre-mixed with the re-suspended Luciferase Assay Reagent and the re-suspended Stop & Glo Substrate (2:1:1 ratio). Fifty (50) μL of the mixture was added to each aspirated well on assay plates and luciferase activity was measured immediately on a Wallac TriLux (Perkin-Elmer). Antiviral activities of inhibitors toward the recombinant virus were quantified by measuring luciferase activity in cells infected for 4-5 days with NLRluc recombinants in the presence serial dilutions of the inhibitor. Table 1 is the key for the data in Table 2.

Structure (SMILES)	EC50 [nM]
C=C(C)[C@@H]1CC[C@]2(CNCCC(=O)N3CCCC3)CC[C@]3(C)[C@H](CC[C@@H]4[C@@]5(C)CC=C(c6ccc(C(=O)O)cc6)C(C)(C)[C@@H]5CC[C@]43C)[C@@H]12 [Example 70, 4-((1R,3aS,5aR,5bR,7aR,11aS,11bR,13aR,13bR)-5a,5b,8,8,11a-pentamethyl-3a-((3-oxo-3-(pyrrolidin-1-yl)propylamino)methyl)-1-(prop-1-en-2-yl)-2,3,3a,4,5,5a,5b,6,7,7a,8,11,11a,11b,12,13,13a,13b-octadecahydro-1H-cyclopenta[a]chrysen-9-yl)benzoic acid]	< 100
C=C(C)[C@@H]1CC[C@]2(CNCCS(=O)(=O)N3CCNCC3)CC[C@]3(C)[C@H](CC[C@@H]4[C@@]5(C)CC=C(c6ccc(C(=O)O)cc6)C(C)(C)[C@@H]5CC[C@]43C)[C@@H]12 [Example 43, 4-((1R,3aS,5aR,5bR,7aR,11aS,11bR,13aR,13bR)-5a,5b,8,8,11a-pentamethyl-3a-((2-(piperazin-1-ylsulfonyl)ethylamino)methyl)-1-(prop-1-en-2-yl)-2,3,3a,4,5,5a,5b,6,7,7a,8,11,11a,11b,12,13,13a,13b-octadecahydro-1H-cyclopenta[a]chrysen-9-yl)benzoic acid]	< 100
C=C(C)[C@@H]1CC[C@]2(CNCCc3ccc(C(=O)OC)cc3)CC[C@]3(C)[C@H](CC[C@@H]4[C@@]5(C)CC=C(c6ccc(C(=O)O)cc6)C(C)(C)[C@@H]5CC[C@]43C)[C@@H]12 [Example 46, 4-((1R,3aS,5aR,5bR,7aR,11aS,11bR,13aR,13bR)-3a-((4-(methoxycarbonyl)phenethylamino)methyl)-5a,5b,8,8,11a-pentamethyl-1-(prop-1-en-2-yl)-2,3,3a,4,5,5a,5b,6,7,7a,8,11,11a,11b,12,13,13a,13b-octadecahydro-1H-cyclopenta[a]chrysen-9-yl)benzoic acid]	< 100
C=C(C)[C@@H]1CC[C@]2(CNC3(CN4CCCCC4)CC3)CC[C@]3(C)[C@H](CC[C@@H]4[C@@]5(C)CC=C(c6ccc(C(=O)O)cc6)C(C)(C)[C@@H]5CC[C@]43C)[C@@H]12 [Example 82, 4-((1R,3aS,5aR,5bR,7aR,11aS,11bR,13aR,13bR)-5a,5b,8,8,11a-pentamethyl-3a-((1-(piperidin-1-ylmethyl)cyclopropylamino)methyl)-1-(prop-1-en-2-yl)-2,3,3a,4,5,5a,5b,6,7,7a,8,11,11a,11b,12,13,13a,13b-octadecahydro-1H-cyclopenta[a]chrysen-9-yl)benzoic acid]	< 100
C=C(C)[C@@H]1CC[C@]2(CNCCCN3CCCC3=O)CC[C@]3(C)[C@H](CC[C@@H]4[C@@]5(C)CC=C(c6ccc(C(=O)O)cc6F)C(C)(C)[C@@H]5CC[C@]43C)[C@@H]12 [Example 87, 3-fluoro-4-((1R,3aS,5aR,5bR,7aR,11aS,11bR,13aR,13bR)-5a,5b,8,8,11a-pentamethyl-3a-((3-(2-oxopyrrolidin-1-yl)propylamino)methyl)-1-(prop-1-en-2-yl)-2,3,3a,4,5,5a,5b,6,7,7a,8,11,11a,11b,12,13,13a,13b-octadecahydro-1H-cyclopenta[a]chrysen-9-yl)benzoic acid]	< 100
C=C(C)[C@@H]1CC[C@]2(CNCC(=O)N3CCCCC3)CC[C@]3(C)[C@H](CC[C@@H]4[C@@]5(C)CC=C(c6ccc(C(=O)O)cc6)C(C)(C)[C@@H]5CC[C@]43C)[C@@H]12 [Example 130, 4-((1R,3aS,5aR,5bR,7aR,11aS,11bR,13aR,13bR)-5a,5b,8,8,11a-pentamethyl-3a-((2-oxo-2-(piperidin-1-yl)ethylamino)methyl)-1-(prop-1-en-2-yl)-2,3,3a,4,5,5a,5b,6,7,7a,8,11,11a,11b,12,13,13a,13b-octadecahydro-1H-cyclopenta[a]chrysen-9-yl)benzoic acid]	< 100
C=C(C)[C@@H]1CC[C@]2(CNCCC(=O)NC(C)(CO)CO)CC[C@]3(C)[C@H](CC[C@@H]4[C@@]5(C)CC=C(c6ccc(C(=O)O)cc6)C(C)(C)[C@@H]5CC[C@]43C)[C@@H]12 [Example 129, 4-((1R,3aS,5aR,5bR,7aR,11aS,11bR,13aR,13bR)-3a-((3-(1,3-dihydroxy-2-methylpropan-2-ylamino)-3-oxopropylamino)methyl)-5a,5b,8,8,11a-pentamethyl-1-(prop-1-en-2-yl)-2,3,3a,4,5,5a,5b,6,7,7a,8,11,11a,11b,12,13,13a,13b-octadecahydro-1H-cyclopenta[a]chrysen-9-yl)benzoic acid]	< 100
C=C(C)[C@@H]1CC[C@]2(CNCCCC(=O)OC(C)(C)C)CC[C@]3(C)[C@H](CC[C@@H]4[C@@]5(C)CC=C(c6ccc(C(=O)O)cc6)C(C)(C)[C@@H]5CC[C@]43C)[C@@H]12 [Example 27, 4-((1R,3aS,5aR,5bR,7aR,11aS,11bR,13aR,13bR)-3a-((4-tert-butoxy-4-oxobutylamino)methyl)-5a,5b,8,8,11a-pentamethyl-1-(prop-1-en-2-yl)-2,3,3a,4,5,5a,5b,6,7,7a,8,11,11a,11b,12,13,13a,13b-octadecahydro-1H-cyclopenta[a]chrysen-9-yl)benzoic acid]	< 100
C=C(C)[C@@H]1CC[C@]2(CNCCCN3C(=O)CCCC3=O)CC[C@]3(C)[C@H](CC[C@@H]4[C@@]5(C)CC=C(c6ccc(C(=O)O)cc6)C(C)(C)[C@@H]5CC[C@]43C)[C@@H]12 [Example 80, 4-((1R,3aS,5aR,5bR,7aR,11aS,11bR,13aR,13bR)-3a-((3-(2,6-dioxopiperidin-1-yl)propylamino)methyl)-5a,5b,8,8,11a-pentamethyl-1-(prop-1-en-2-yl)-2,3,3a,4,5,5a,5b,6,7,7a,8,11,11a,11b,12,13,13a,13b-octadecahydro-1H-cyclopenta[a]chrysen-9-yl)benzoic acid]	< 100
C=C(C)[C@@H]1CC[C@]2(CNCCC(=O)N3CCC(F)(F)CC3)CC[C@]3(C)[C@H](CC[C@@H]4[C@@]5(C)CC=C(c6ccc(C(=O)O)cc6)C(C)(C)[C@@H]5CC[C@]43C)[C@@H]12 [Example 117, 4-((1R,3aS,5aR,5bR,7aR,11aS,11bR,13aR,13bR)-3a-((3-(4,4-difluoropiperidin-1-yl)-3-oxopropylamino)methyl)-5a,5b,8,8,11a-pentamethyl-1-(prop-1-en-2-yl)-2,3,3a,4,5,5a,5b,6,7,7a,8,11,11a,11b,12,13,13a,13b-octadecahydro-1H-cyclopenta[a]chrysen-9-yl)benzoic acid]	< 100
C=C(C)[C@@H]1CC[C@]2(CNCCc3ccc(C(=O)O)cc3)CC[C@]3(C)[C@H](CC[C@@H]4[C@@]5(C)CC=C(c6ccc(C(=O)O)cc6)C(C)(C)[C@@H]5CC[C@]43C)[C@@H]12 [Example 47, 4-((1R,3aS,5aR,5bR,7aR,11aS,11bR,13aR,13bR)-3a-((4-carboxyphenethylamino)methyl)-5a,5b,8,8,11a-pentamethyl-1-(prop-1-en-2-yl)-2,3,3a,4,5,5a,5b,6,7,7a,8,11,11a,11b,12,13,13a,13b-octadecahydro-1H-cyclopenta[a]chrysen-9-yl)benzoic acid]	< 100
C=C(C)[C@@H]1CC[C@]2(CN(CCN(C)C)C(=O)CCC(=O)O)CC[C@]3(C)[C@H](CC[C@@H]4[C@@]5(C)CC=C(c6ccc(C(=O)O)cc6)C(C)(C)[C@@H]5CC[C@]43C)[C@@H]12 [Example 13, 4-((1R,3aS,5aR,5bR,7aR,11aS,11bR,13aR,13bR)-3a-((3-carboxy-N-(2-(dimethylamino)ethyl)propanamido)methyl)-5a,5b,8,8,11a-pentamethyl-1-(prop-1-en-2-yl)-2,3,3a,4,5,5a,5b,6,7,7a,8,11,11a,11b,12,13,13a,13b-octadecahydro-1H-cyclopenta[a]chrysen-9-yl)benzoic acid]	< 100
C=C(C)[C@@H]1CC[C@]2(CNC(=O)OCCN3CCNCC3)CC[C@]3(C)[C@H](CC[C@@H]4[C@@]5(C)CC=C(c6ccc(C(=O)O)cc6)C(C)(C)[C@@H]5CC[C@]43C)[C@@H]12 [Example 163, 4-((1R,3aS,5aR,5bR,7aR,11aS,11bR,13aR,13bR)-5a,5b,8,8,11a-pentamethyl-3a-(((2-(piperazin-1-yl)ethoxy)carbonylamino)methyl)-1-(prop-1-en-2-yl)-2,3,3a,4,5,5a,5b,6,7,7a,8,11,11a,11b,12,13,13a,13b-octadecahydro-1H-cyclopenta[a]chrysen-9-yl)benzoic acid]	< 100

Same assay, conditions: NL43, MT-2 cells infected 4-5 days with NLRluc recombinant virus, numeric value

Structure (SMILES)	EC50 [nM]
C=C(C)[C@@H]1CC[C@]2(CNCCCBr)CC[C@]3(C)[C@H](CC[C@@H]4[C@@]5(C)CC=C(c6ccc(C(=O)O)cc6)C(C)(C)[C@@H]5CC[C@]43C)[C@@H]12 [Example 65, 4-((1R,3aS,5aR,5bR,7aR,11aS,11bR,13aR,13bR)-3a-((3-bromopropylamino)methyl)-5a,5b,8,8,11a-pentamethyl-1-(prop-1-en-2-yl)-2,3,3a,4,5,5a,5b,6,7,7a,8,11,11a,11b,12,13,13a,13b-octadecahydro-1H-cyclopenta[a]chrysen-9-yl)benzoic acid]	1
